Measurements from PubChem BioAssay AID1996.
In brackets after ≈: the same amount, converted by molar mass.

conditions: buffer; pH 7.4; 200.0 µM

Structure (SMILES)	solubility kinetic [µg/mL]
CC1CCN(c2ccc([N+](=O)[O-])c(SCCO)c2)CC1	28.4 (≈ 95.8 µM)
CCCCOCCCNC(=O)N[C@H](C(=O)O)C(C)CC (some centres undefined)	> 43.3
CCCNC(=O)C/C(C)=N/NC(=O)C(=O)Nc1ccccn1	> 45.8
COc1ccc(S(N)(=O)=O)cc1C(=O)OCC(=O)Nc1ncc(Cl)c(C)c1Cl	24 (≈ 53.5 µM)
COc1ccc(NC(=O)c2sc3nc(C)cc(C)c3c2N)c(OC)c1	< 0.3
C=CCNc1nc(Cl)nc(Nc2cc(Cl)ccc2OC)n1	< 0.1
COc1cc(S(=O)(=O)Nc2ccc3c(c2)C(=O)N(C)C3=O)ccc1NC(C)=O	> 60.5
O=C(O)C1CC=CCC1C(=O)Nc1cccc([N+](=O)[O-])c1 (centres undefined)	> 43.5
Cc1cccc(NC(=O)CCC(=O)c2cccs2)n1	> 41.2
O=[N+]([O-])c1cccc(NC(=S)N2CCCC2)c1	> 37.7
COc1ccc(N)cc1S(=O)(=O)Nc1ccccc1Cl	> 46.9
CC(C)(C)N(Cc1cc2ccccc2[nH]c1=O)C(=O)c1ccco1	2.9 (≈ 8.94 µM)
CCOc1ccccc1NC(=O)Nc1cc(S(=O)(=O)N(C)C)ccc1C	0.6 (≈ 1.59 µM)
CCOC(=O)C(=CNc1ccc2c(c1)CCN2C(C)=O)C(=O)OCC	9.9 (≈ 28.6 µM)
CCCCOc1ccc(C(=O)NCCc2cccs2)cc1	1.3 (≈ 4.28 µM)
COc1ccccc1CCNS(=O)(=O)c1cn(C)c(=O)n(C)c1=O	> 53
CCC(CO)(C(=O)OC1CC2CCC(C1)N2C)c1ccccc1.Cl (centres undefined)	> 53.1
CCOC(=O)c1c(C)[nH]c(C)c1C(=O)COC(=O)c1cccs1	> 50.3
CCCC(=O)N(Cc1cc(=O)[nH]c2ccccc12)c1ccc(OC)cc1	> 52.6
COc1ccc(-c2noc(CCC(=O)NCC3CCCO3)n2)cc1 (centres undefined)	> 49.7
Cc1ccc(C(C)C)c(OCCNC(=O)c2ccccc2O)c1	< 0.7
Cc1occc1C(=O)/C(C#N)=C/c1ccc(O)c(Br)c1	> 49.8
CNC(=S)N1CCC(c2nc3ccccc3s2)CC1	> 43.7
CC(NC(=O)c1cc(Br)cs1)C1CCCO1 (centres undefined)	> 45.6
COc1ccc(N2C(=O)C(C)C(Cc3ccc(C)cc3)C2=O)cc1 (centres undefined)	2.4 (≈ 7.42 µM)
CCOCC(=O)Nc1cc(C)on1	22.8 (≈ 124 µM)

Structure (SMILES)	solubility kinetic [µg/mL]
Cc1c(OCC(F)(F)F)ccnc1CS(=O)c1nc2ccccc2[nH]1 (centres undefined)	> 55.4
Cc1ccccc1C(=O)O/N=C(\N)Cc1cccs1	> 41.2
Cc1ccc(C(=O)NCC(=O)N2CCN(c3cccc(Cl)c3)CC2)s1	2.8 (≈ 7.41 µM)
CC(C)Nc1nc(Cl)nc(Nc2ccccc2)n1	27.3 (≈ 104 µM)
O=C(NCCc1ccc(Cl)cc1)c1cccs1	> 39.9
CN(CC(=O)Nc1ccc(F)c(F)c1F)C(=O)/C=C/c1ccco1	> 50.7
C#CCSc1nc(C)cc(C(=O)OCC)c1C#N	7.2 (≈ 27.7 µM)
COC1C(C)=C(C)C(=O)N1Cc1ccc(F)cc1 (centres undefined)	31.9 (≈ 128 µM)
O=C(OCc1nc2ccccc2s1)c1ccccc1O	4.8 (≈ 16.8 µM)
Cc1nc(NC(=O)CN2CCCCC2)sc1C(=O)N(C)C	> 46.6
Cc1ccc(S(=O)(=O)NC2CC2)cc1[N+](=O)[O-]	> 38.4
COCCn1c(N)c(Sc2ccccc2)c(=O)[nH]c1=O	41.4 (≈ 141 µM)
O=C(NCc1cccc(Cl)c1)c1ccc2c(c1)OCCO2	3.2 (≈ 10.5 µM)
COc1ccccc1Nc1ccc2nonc2c1[N+](=O)[O-]	2 (≈ 6.99 µM)
Cl.O=[N+]([O-])c1cc(S(=O)(=O)CCCN2CCOCC2)ccc1F	> 55.3
Cc1[nH]c2ccc(C(=O)N3CCCCC3)cc2c1C	> 38.5
COc1cccc2c1OCC(C(=O)Nc1nccs1)=C2	18.2 (≈ 63.1 µM)
O=C(NCc1ccco1)c1nn2cccnc2c1Cl	> 41.5
CC(=O)CSc1nnc(-c2ccco2)n1-c1ccccc1	> 44.9
CC(C)C(CCNCc1ccccn1)c1ccc(Cl)cc1 (centres undefined)	24.8 (≈ 81.9 µM)
CN(c1c[nH]c(=O)[nH]c1=O)C1CCCCC1	> 33.5
CCN=C1S/C(=C\c2cc(Br)c(O)c(OC)c2)C(=O)N1CC	1.3 (≈ 3.37 µM)
O=Cc1sc([O-])nc1-[n+]1ccc2ccccc2c1	5.1 (≈ 19.9 µM)
O=C(Nc1cc2c3c(c1)CC(=O)N3CCC2)c1ccco1	39.6 (≈ 140 µM)
COc1cc(CNCc2ccco2)cc(OC)c1O.Cl	41.4
CC1CCN(CC#CCOc2ccc(Cl)cc2)CC1.O=C(O)C(=O)O	16.3

Structure (SMILES)	solubility kinetic [µg/mL]
O=S(=O)(Nc1cc(F)ccc1F)c1cccc2nonc12	> 46.7
CN(C)C(=S)Nc1nc2ccccc2s1	5.4 (≈ 22.8 µM)
CC1(C)OC(=O)C(=CNC(CO)C(=O)O)C(=O)O1 (centres undefined)	> 38.9
CCOc1cccc(C(=O)N2CCCN(C)CC2)c1	35.6 (≈ 136 µM)
CCOC(=O)Cn1ccc(NC(=O)COc2ccc(F)cc2)n1	> 48.2
C#CCOc1ccc(/C=C2/C(=O)N(c3cccc(C(=O)O)c3)N=C2C)cc1OC	> 58.6
O=C(CN1C(=O)COc2ccccc21)N1CCCC1	> 39
Cc1cccc(C)c1NC(=O)COC(=O)/C=C/c1ccc(S(=O)(=O)N2CCOCC2)cc1	2.2 (≈ 4.8 µM)
Cc1ccc(C(=O)O)cc1N1CCCC1=O	> 32.9
Cc1ccc(C(=O)N/N=C\c2cccnc2)s1	> 36.8
CC(C)(C)c1ccc(-c2cnco2)cc1	0.9 (≈ 4.47 µM)
CCOC(=O)/C(C)=C1\NC(C)(C)Cc2ccccc21.I	18.7
O=C(NNC(=O)c1ccccc1-n1cccc1)c1cncc(Br)c1	> 57.8
CCC(C)c1ccc(NC(=S)N2CCN(S(C)(=O)=O)CC2)cc1 (centres undefined)	8.8 (≈ 24.8 µM)
Cc1cccc(OCC2Cn3c(nc4c3c(=O)[nH]c(=O)n4C)O2)c1 (centres undefined)	9 (≈ 27.4 µM)
Cc1ccc(Nc2ccc([N+](=O)[O-])cn2)cc1Cl	< 0.2
COC(=O)C(C)(N)Cc1ccc(O)cc1.Cl (centres undefined)	> 36.9
Cc1cccc(Nc2nc(-c3sc(C)nc3C)cs2)c1	0.2 (≈ 0.663 µM)
Cn1c(=O)n(Cc2ccc(Br)cc2)c2ccccc21	25.7 (≈ 81 µM)
Cc1nnc(SC(C)C(=O)Nc2ccc(Cl)cc2Cl)[nH]c1=O (centres undefined)	> 53.9
Cc1nc([N+](=O)[O-])c(C(=O)OCc2ccccc2F)n1C	41.8 (≈ 143 µM)
COc1cc(CCC(=O)NCC2CCCO2)cc(OC)c1OC (centres undefined)	44 (≈ 136 µM)
Cc1cccc(C)c1OCC(O)CN1CCc2ccccc2C1.Cl (centres undefined)	> 52.2
Cc1ccc(CN(C)Cc2cc(=O)oc3cc(C)c(Cl)cc23)cc1	< 0.7

Next, values leading:

solubility kinetic [µg/mL]	Structure (SMILES)
< 0.7	COc1ccccc1C1CCN(Cc2cccc3ccccc23)CC1
> 32	Cc1ccc(NC(=O)c2cnccn2)cc1
28.3 (≈ 77 µM)	CC(NC(=O)C(C)N1C(=O)c2cccc([N+](=O)[O-])c2C1=O)c1ccccc1 (centres undefined)
51.3 (≈ 141 µM)	Nc1c(C(=O)O)sc2nc(-c3ccccc3)cc(-c3ccc(F)cc3)c12
19.6 (≈ 64.2 µM)	NC(=O)Nc1ccccc1C(=O)Nc1ccc2ccccc2c1
24.6 (≈ 76.1 µM)	CCOc1ccc(NC(=S)Nc2cccc3cnccc23)cc1
17.3 (≈ 59.8 µM)	Nc1ccccc1C(O)(Cc1ccccc1)c1ccccc1 (centres undefined)
0.9 (≈ 2.56 µM)	CC(=O)Nc1ccc(NC(=O)c2sc(-c3ccccc3)nc2C)cc1
39.7 (≈ 135 µM)	O=C(Cc1ccc(Cl)cc1)NCC(=O)N1CCCCC1
2 (≈ 4.01 µM)	CC(C)C(NC(=O)c1ccc(Cl)cc1Cl)C(=O)N1CCN(S(=O)(=O)c2ccccc2)CC1 (centres undefined)
> 44.9	NC1=NC(=O)CC(C(=O)Nc2cccc3ccccc23)S1 (centres undefined)
5.2 (≈ 13.2 µM)	CS(=O)(=O)c1cccc(C(=O)OCC(=O)NC(=O)Nc2ccccc2F)c1
5.7 (≈ 18.9 µM)	Cc1ccc(NC(=O)Cc2ccc(-c3ccccc3)cc2)nc1
10.5 (≈ 33.5 µM)	Cc1ccccc1NC1=NCC(c2ccc([N+](=O)[O-])cc2)S1 (centres undefined)
23.3 (≈ 67.4 µM)	O=C(NCCOCc1ccccc1)C(c1ccccc1)c1ccccc1
13.7 (≈ 52.6 µM)	CC1Cc2ccccc2N1C(=S)NC1CCCC1 (centres undefined)
42.7 (≈ 130 µM)	Cc1ccc(F)cc1NC(=O)N1c2ccccc2NC(=O)CC1C (centres undefined)
26.3 (≈ 79.9 µM)	CCC(Oc1ccccc1OC)C(=O)Nc1ccc2c(c1)OCO2 (centres undefined)
> 52.3	Cc1onc(-c2ccccc2)c1C(=O)N1CCN(c2ccccn2)CC1
37.7 (≈ 118 µM)	OC(C#CCCN1CCCCC1)(c1ccccc1)c1ccccc1
4.8 (≈ 11 µM)	CCOc1ccc(NC(=O)CSc2nc(=O)n(Cc3cccnc3)c3c2CCC3)cc1
> 47.9	CCOc1ccccc1C(=O)OCC(=O)NCC1CCCCC1

solubility kinetic [µg/mL]	Structure (SMILES)
43.1 (≈ 144 µM)	CC(CCc1ccccc1)NCC(O)COc1ccccc1 (centres undefined)
8.2 (≈ 26.2 µM)	O=C(CNC(=O)C1CCCCC1)Nc1ccc(F)c(Cl)c1
> 46.6	O=C(NCCS(=O)(=O)N1CCCCCC1)c1ccccc1
> 52.8	Cc1ccc(S(=O)(=O)N[C@@H](Cc2ccccc2)C(=O)CCl)cc1
> 52.6	CC(=O)NC(Cc1c[nH]c2ccccc12)C(=O)NCCc1ccccn1 (centres undefined)
17.1 (≈ 52.9 µM)	Cc1nc([N+](=O)[O-])cn1CC(O)c1ccc(-c2ccccc2)cc1 (centres undefined)
31.2 (≈ 101 µM)	O=C1CSC(c2ccc(F)cc2)N1c1c(F)cccc1F (centres undefined)
3.1 (≈ 9.03 µM)	CCOC(=O)c1cc2c(ccn2C)n1CC(=O)Nc1ccc(F)cc1
> 32.3	Cc1c(C(=O)NC2CC2)oc2ccccc12
27.5 (≈ 75.7 µM)	Cc1cn(CCC(=O)Nc2ccccc2N2CCOCC2)c2ccccc12
< 0.3	CCc1nc2ccccc2c(C(=O)Nc2ccc(F)cc2)c1C
4.6 (≈ 14.3 µM)	O=C(Nc1ccc(C(F)(F)F)cc1)c1ccc2ncsc2c1
20.7 (≈ 72.5 µM)	Cc1ccc(SCC(=O)NCCc2ccccc2)cc1
> 60.7	CC(=O)c1cccc(NC(=O)COC(=O)CCNS(=O)(=O)c2ccccc2)c1
1.3 (≈ 3.28 µM)	O=C(Nc1cccc(NC(=O)c2ccccc2[N+](=O)[O-])c1)c1ccccc1Cl
> 53.5	Cc1ccc2nc(-c3ccc(NC(=O)COCC(=O)O)cc3)sc2c1
> 46.3	O=C(c1cc2ccccc2o1)N1CCN(c2ncccn2)CC1
> 38.7	COc1ccccc1OCC(=O)Nc1ccncc1
35.7 (≈ 133 µM)	O=C(NC(=S)N1CCCC1)c1ccccc1Cl
40.6 (≈ 124 µM)	O=C(Nc1ccc(F)cc1)C(NC1CCCCC1)c1ccccc1 (centres undefined)
27.8 (≈ 84.4 µM)	CSc1ccccc1NC(=O)COC(=O)CCc1ccccc1
